The first assay deals with beta-TC6 cells. The assay is described as follows: Insulin HTRF assay (relative activity Ar) in beta-TC6 cells. It counts as cell-based, mouse. Conditions: Mus musculus, Beta-TC6, 4 h, insulin HTRF, supernatant of beta-TC6 cells, incubation with test compound at 37°C for 2, 3, 4h; read-out: Ar (relative activity). The procedure, abridged: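 beta-TC6 cells (15k/well, seeded 24 or 48 h) washed, then exposed to compound in induction buffer (0.5% DMSO final) for 2, 3 or 4 h at 37°C.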
On to `COCCNc1nc2cnc(-c3cccc(N(C)C)c3)cc2n1C` [Compound 647, 6-[3-(dimethylamino)phenyl]-N-(2-methoxyethyl)-1-methyl-imidazo[4,5-c]pyridin-2-amine], for which the Emax fell in the range of 50 to 100%.
`Cn1c(NCc2ccccc2)nc2cnc(Nc3cccc(F)c3)cc21` [Compound 629, N2-benzyl-N6-(3-fluorophenyl)-1-methyl-imidazo[4,5-c]pyridine-2,6-diamine]: the Emax lay within 30 to 50%.
On to `COCCNc1nc2cnc(-c3ccc4c(c3)OCO4)cc2n1C` [Compound 759, 6-(1,3-benzodioxol-5-yl)-N-(2-methoxyethyl)-1-methyl-imidazo[4,5-c]pyridin-2-amine], for which the Emax lay in the range of 0 to 30%.
As for `CN(C)C(=O)c1ccc(-c2cc3cnc(Nc4ccncn4)cc3n2Cc2ccccc2)cc1` [Compound 58, 4-[1-benzyl-6-(pyrimidin-4-ylamino)pyrrolo[3,2-c]pyridin-2-yl]-N,N-dimethyl-benzamide], the Emax was in the range of 30 to 50%.
On the same count and under the same terms, the same measure for `Cc1cccc(Nc2cc3c(cn2)cc(-c2cnn(C)c2)n3C)c1` [Compound 136, 1-methyl-2-(1-methylpyrazol-4-yl)-N-(m-tolyl)pyrrolo[3,2-c]pyridin-6-amine]: 50 to 100%; for `COc1ccc(Nc2cc3c(cn2)cc(-c2cccc(N(C)C(C)=O)c2)n3C)cc1OC` [Compound 160, N-[3-[6-(3,4-dimethoxyanilino)-1-methyl-pyrrolo[3,2-c]pyridin-2-yl]phenyl]-N-methyl-acetamide]: 50 to 100%.
Still for that read-out and setting: the same measure for `COCCNC(=O)c1cccc(-c2nc3c(Nc4cc(OC)c(OC)c(OC)c4)nccc3[nH]2)c1` [Compound 385, N-(2-methoxyethyl)-3-[4-(3,4,5-trimethoxyanilino)-1H-imidazo[4,5-c]pyridin-2-yl]benzamide]: > 100%; for `Cn1c(-c2ccsc2)cc2c(Nc3ccc(S(C)(=O)=O)cc3)nccc21` [Compound 289, 1-methyl-N-(4-methylsulfonylphenyl)-2-(3-thienyl)pyrrolo[3,2-c]pyridin-4-amine]: 30 to 50%; for `CN(C)C(=O)c1ccc(-c2cc3cnc(Nc4cccc(OC(F)(F)F)c4)cc3[nH]2)cc1` [Compound 33, N,N-dimethyl-4-[6-[3-(trifluoromethoxy)anilino]-1H-pyrrolo[3,2-c]pyridin-2-yl]benzamide]: 30 to 50%.
With `COc1cc(Nc2cc3c(cn2)nc(Cc2cccnc2)n3C)cc(OC)c1OC` [Compound 729, 1-methyl-2-(3-pyridylmethyl)-N-(3,4,5-trimethoxyphenyl)imidazo[4,5-c]pyridin-6-amine], the Emax lay in the range of 30 to 50%.
With `Oc1cccc(Nc2cc3[nH]c(-c4ccccc4)cc3cn2)c1` [Compound 180, 3-[(2-phenyl-1H-pyrrolo[3,2-c]pyridin-6-yl)amino]phenol], the Emax lay within 50 to 100%.
`Cn1c(-c2cccnc2)cc2cnc(N3CCOCC3)cc21` [Compound 94, 4-[1-methyl-2-(3-pyridyl)pyrrolo[3,2-c]pyridin-6-yl]morpholine]: the Emax was 30 to 50%.
Same read-out and setting: the same measure for `CNc1nc2cnc(Nc3ccc(OC)nc3)cc2n1-c1cc(OC)c(OC)c(OC)c1` [Compound 488, N6-(6-methoxy-3-pyridyl)-N2-methyl-1-(3,4,5-trimethoxyphenyl)imidazo[4,5-c]pyridine-2,6-diamine]: 50 to 100%.
Still for that read-out and setting: the same measure for `COc1cccc(-c2nc3c(Nc4cccc(C(F)(F)F)c4)nccc3[nH]2)c1` [Compound 373, 2-(3-methoxyphenyl)-N-[3-(trifluoromethyl)phenyl]-1H-imidazo[4,5-c]pyridin-4-amine]: 0 to 30%; for `COc1ccc(Nc2cc3[nH]c(-c4cccc(F)c4)cc3cn2)cn1` [Compound 8, 2-(3-fluorophenyl)-N-(6-methoxy-3-pyridyl)-1H-pyrrolo[3,2-c]pyridin-6-amine]: 30 to 50%; for `Cn1c(-c2ccsc2)cc2c(Nc3ccc(C#N)cc3)nccc21` [Compound 281, 4-[[1-methyl-2-(3-thienyl)pyrrolo[3,2-c]pyridin-4-yl]amino]benzonitrile]: 0 to 30%.
`Oc1cccc(Nc2nccc3[nH]c(-c4ccccc4)nc23)c1` [Compound 337, 3-[(2-phenyl-1H-imidazo[4,5-c]pyridin-4-yl)amino]phenol]: the Emax fell in the range of 30 to 50%.
With `Cn1c(NCc2ccccc2)nc2cnc(-c3ccc(N4CCOCC4)cc3)cc21` [Compound 614, N-benzyl-1-methyl-6-(4-morpholinophenyl)imidazo[4,5-c]pyridin-2-amine], the Emax is 50 to 100%.
Same read-out and setting: the same measure for `CC(C)Oc1ccc(Nc2nccc3[nH]c(-c4ccsc4)cc23)cc1` [Compound 269, N-(4-isopropoxyphenyl)-2-(3-thienyl)-1H-pyrrolo[3,2-c]pyridin-4-amine]: 0 to 30%.
Take `CN(C)c1ccc(-c2cc3c(Nc4ccc(C(N)=O)cc4)nccc3n2C)cc1` [Compound 227, 4-[[2-(4-dimethylaminophenyl)-1-methyl-pyrrolo[3,2-c]pyridin-4-yl]amino]benzamide]: the Emax fell in the range of 30 to 50%.
On the same count and under the same terms, the same measure for `COc1ccc(-c2nc3c(NCC4CC4)nccc3[nH]2)cc1OC` [Compound 354, N-(cyclopropylmethyl)-2-(3,4-dimethoxyphenyl)-1H-imidazo[4,5-c]pyridin-4-amine]: 50 to 100%; for `Cn1c(NCc2ccccc2)nc2cnc(Nc3cccc(O)c3)cc21` [Compound 622, 3-[[2-(benzylamino)-1-methyl-imidazo[4,5-c]pyridin-6-yl]amino]phenol]: 50 to 100%; for `Cn1c(NCc2ccccc2)nc2cnc(-c3ccccc3)cc21` [Compound 836, N-benzyl-1-methyl-6-phenyl-imidazo[4,5-c]pyridin-2-amine]: 30 to 50%.
In the case of `COc1ccc(CNc2nc3cnc(Nc4ccc(C(N)=O)cc4)cc3n2C)cc1OC` [Compound 601, 4-[[2-[(3,4-dimethoxyphenyl)methylamino]-1-methyl-imidazo[4,5-c]pyridin-6-yl]amino]benzamide], the Emax lay within 50 to 100%.
The same measure, in the same setting: the same measure for `CNc1nc2cnc(-c3cccs3)cc2n1Cc1cccnc1` [Compound 566, N-methyl-1-(3-pyridylmethyl)-6-(2-thienyl)imidazo[4,5-c]pyridin-2-amine]: 30 to 50%; for `CNc1nc2cnc(Nc3ccc(OC)c(OC)c3)cc2n1Cc1ccco1` [Compound 520, N6-(3,4-dimethoxyphenyl)-1-(2-furylmethyl)-N2-methyl-imidazo[4,5-c]pyridine-2,6-diamine]: 50 to 100%.
Consider `CN(C)c1ccc(CNc2nccc3[nH]c(-c4ccncc4)nc23)cc1` [Compound 430, N-[(4-dimethylaminophenyl)methyl]-2-(4-pyridyl)-1H-imidazo[4,5-c]pyridin-4-amine], for which the Emax fell in the range of 50 to 100%.
As for `CNc1nc2cnc(Nc3ccc4c(c3)OCCO4)cc2n1-c1ccccc1` [Compound 505, N6-(2,3-dihydro-1,4-benzodioxin-6-yl)-N2-methyl-1-phenyl-imidazo[4,5-c]pyridine-2,6-diamine], the Emax is 50 to 100%.
In the case of `CNc1nc2cnc(Nc3cccc(C(C)C)c3)cc2n1CCOC` [Compound 772, N6-(3-isopropylphenyl)-1-(2-methoxyethyl)-N2-methyl-imidazo[4,5-c]pyridine-2,6-diamine], the Emax lay in the range of 0 to 30%.
Consider `COc1cc(Nc2nccc3[nH]c(-c4ccc(O)cc4)nc23)cc(OC)c1OC` [Compound 364, 4-[4-(3,4,5-trimethoxyanilino)-1H-imidazo[4,5-c]pyridin-2-yl]phenol], for which the Emax is 50 to 100%.
`CNc1nc2cnc(Nc3cccc(OC)c3)cc2n1-c1cc(OC)c(OC)c(OC)c1` [Compound 484, N6-(3-methoxyphenyl)-N2-methyl-1-(3,4,5-trimethoxyphenyl)imidazo[4,5-c]pyridine-2,6-diamine]: the Emax was 30 to 50%.
For `COc1cc(Nc2nccc3c2cc(-c2cccnc2)n3C)cc(OC)c1OC` [Compound 237, 1-methyl-2-(3-pyridyl)-N-(3,4,5-trimethoxyphenyl)pyrrolo[3,2-c]pyridin-4-amine], the Emax is > 100%.
Take `COc1ccc(Nc2cc3c(cn2)nc(NCc2cccc(C)c2)n3C)cc1OC` [Compound 578, N6-(3,4-dimethoxyphenyl)-1-methyl-N2-(m-tolylmethyl)imidazo[4,5-c]pyridine-2,6-diamine]: the Emax fell in the range of 50 to 100%.
Take `COc1ccc(CNc2nccc3c2ncn3Cc2ccccc2)cc1` [Compound 455, 1-benzyl-N-[(4-methoxyphenyl)methyl]imidazo[4,5-c]pyridin-4-amine]: the Emax lay within 0 to 30%.
In the case of `CN(C)C(=O)c1ccc(Nc2cc3[nH]c(-c4ccccc4)cc3cn2)cc1` [Compound 182, N,N-dimethyl-4-[(2-phenyl-1H-pyrrolo[3,2-c]pyridin-6-yl)amino]benzamide], the Emax lay in the range of 50 to 100%.
Take `CNc1nc2cnc(-c3ccc(CO)cc3)cc2n1C` [Compound 830, [4-[1-methyl-2-(methylamino)imidazo[4,5-c]pyridin-6-yl]phenyl]methanol]: the Emax was in the range of 30 to 50%.
As for `COc1ccc(-c2nc3c(Nc4ccccc4)nccc3[nH]2)cc1` [Compound 393, 2-(4-methoxyphenyl)-N-phenyl-1H-imidazo[4,5-c]pyridin-4-amine], the Emax is 30 to 50%.
On to `CN(C)C(=O)c1ccc(Nc2cc3[nH]c(-c4ccc(C(=O)N(C)C)cc4)cc3cn2)cc1` [Compound 40, 4-[6-[4-(dimethylcarbamoyl)anilino]-1H-pyrrolo[3,2-c]pyridin-2-yl]-N,N-dimethyl-benzamide], for which the Emax is > 100%.
In the case of `CNc1nc2cnc(Nc3ccc4c(c3)OCCO4)cc2n1Cc1cccnc1` [Compound 561, N6-(2,3-dihydro-1,4-benzodioxin-6-yl)-N2-methyl-1-(3-pyridylmethyl)imidazo[4,5-c]pyridine-2,6-diamine], the Emax is > 100%.

Staying with this assay, now noted: insulin HTRF, supernatant of beta-TC6 cells, incubation with test compound at 37°C for 2, 3, 4h.
In the case of `CNc1nc2cnc(-c3ccc(N(C)C)cc3)cc2n1-c1ccccc1` [Compound 501, 6-(4-dimethylaminophenyl)-N-methyl-1-phenyl-imidazo[4,5-c]pyridin-2-amine], the “Ar (relative activity)” value is listed as “++++ (Ar ≥ 100 %)”.

The values above are taken from patent publication EP2818472A1, “Imidazo[4,5-c]pyridine and pyrrolo[3,2-c]pyridine compounds as G-protein-coupled receptor kinase 5 (GRK5) modulators” (Max-Planck-Gesellschaft zur Förderung der Wissenschaften …, priority 2013, dated 2014).
